Source: BindingDB's records for doi:10.1016/S0960-894X(97)00434-4 (1997)

How the values were obtained:
[1] = Compound was tested for the inhibition of Escherichia coli glutamyl-t-RNA synthetase
[2] = Compound was tested for the inhibition of aminoacyl tRNA Synthetase

Row | Structure (SMILES) | Ki [1] | Ki [2]
1 | NC(CCC(=O)O)C(=O)OC[C@H]1C[C@@H](O)C[C@@H](CO)N1 (stereo partly drawn) [4-ammonio-5-{[(2R,4S,6S)-4-hydroxy-6-(hydroxymethyl)piperidin-2-yl]methoxy}-5-oxopentanoate] | 20 µM | 
2 | COc1cc(CNC(=O)CCCC/C=C/C(C)C)ccc1O [Zostrix] |  | 42 µM
3 | NC(CCC(=O)O)C(=O)OC[C@@H]1CCCN1 (stereo not given in full) | 11400 µM | 

Now from value to compound, other results behind:

Row | Ki [1] | Structure (SMILES) | Ki [2]
4 | 380 µM | NC(CCC(=O)O)C(=O)OC[C@H]1CCCN1 (stereo not given in full) | 
5 | 500 µM | NC(CCC(=O)O)C(=O)OC[C@H]1OC(O)[C@H](O)[C@@H]1O (stereo not given in full) | 
